“Also recorded” adds a separate entry of the source. Where two headings read alike, the source gives them in different places.
How the values were obtained:
CFSE-labeled CD4 T-cells = format: cell-based, human; conditions: for indirect killing (loss) of resting CFSE-labeled CD4 T-cells: NL4-3-infected effector cells
[1] = test system: CFSE-labeled spleen CD4 T-cells; assay: Indirect killing assay with CFSE-labeled human spleen cells; format: cell-based; conditions: for loss of CFSE-labeled spleen CD4 T-cells: HIV-infected spleen HLAC effectors; for loss of resting CFSE-labeled spleen CD4 T-cells: HIV-infected tonsil effector cells
Description: (B and C) Fresh human spleen from a single donor were processed into HLAC and assessed in indirect cell killing assay as described in FIG. 2A. Effector spleen HLAC were stimulated with PHA and IL-2 48 hours before mixing, but not during co-culturing with CFSE-labeled cells. Non-activated resting CFSE-labeled spleen cells were co-cultured with NL4-3-infected or uninfected effector cells in the presence or absence of the following drugs, AZT (5 μM), AMD3100 (250 nM), Efavirenz (100 nM), or Raltegravir (30 μM), as indicated. […] Percentages were normalized to the number of viable CFSE-positive spleen CD4 T-cells co-cultured with uninfected effectors in the presence of AZT, as depicted by (*). Error bars represent standard error of the mean for three experiments performed with three different spleen and tonsil donors.
Human tonsil or splenic tissues from routine tonsillectomies were obtained from the National Disease Research Interchange and the Cooperative Human Tissue Network and processed as previously described (Jekle et al., 2003, J Virol 77:5846-5854). In brief, tonsils or spleen were minced, passed through a 40-μm cell strainer, and cultured in 96-well U-bottomed polystyrene plates (2×10^6 cells/well) in medium (200 μl/well) consisting of RPMI 1640 supplemented with 15% heat-inactivated fetal bovine serum, 100 μg/ml gentamicin, 200 μg/ml ampicillin, 1 mM sodium pyruvate, 1% nonessential amino acids (Mediatech), 2 mM L-glutamine, and 1% fungizone (Invitrogen). All HIV-1 infections were carried out with 20-50 ng of HIV-1 p24^gag. Cells were incubated with the virus for 12-16 h, washed extensively, and supplemented with fresh medium. After day 5, infections were monitored by measuring p24gag levels in the culture medium using a FLAQ assay (Hayden et al., 2003, AIDS 17:629-631). Infected and uninfected cultures were manipulated as described for individual experiments. In “indirect killing” assays, unless otherwise stated, drugs were used at the following concentrations: 5 μM AZT; 250 nM AMD3100; 10 μg/ml T20; 100 nM Efavirenz; 1 μM Nevirapine; 30 μM Raltegravir; 60 μM 118-D-24; 5 μM Amprenavir; 5 μM Saquinavir; 5 μM Indinavir. CFSE-labeled cells were activated with PHA (5 μg/ml) and IL-2 (20 ng/ml) 2 days before mixing with effector cells.
Uninfected cells (5×10^6/ml) were labeled with 1 μM CFSE (Molecular Probes C1157), treated with 5 μM AZT for 24 h, and co-cultured with effector cells. CFSE readily diffuses into cells, where intracellular esterases cleave the acetate groups, converting it to a fluorescent, membrane-impermeable dye. […] To quantify indirect killing, mixed (CFSE-labeled+effector) cultures were washed in FACS buffer (PBS supplemented with 2 mM EDTA and 2% fetal bovine serum), stained with PE-conjugated anti-CD4, PerCP-conjugated anti-CD19, and APC-conjugated anti-CD8 (all from BD Pharmingen) and fixed in 1% paraformaldehyde. To determine the absolute numbers of the viable CFSE-labeled cells, a standard number of fluorescent beads (Flow-Count Fluorospheres, Beckman Coulter) was added to each cell-suspension sample before data acquisition. Data were collected on a FACS Calibur (BD Biosciences) and analyzed with Flowjo software (Treestar). The level of indirect killing was defined by sequential gating beginning with forward scatter versus side scatter to select live lymphocytes, subgating on the CFSE-positive population, and calculating the numbers of CD4 or CD8 T or B cells, divided by the number of fluorescent beads acquired.

IL-1β = assay: Maturation and secretion of IL-1β in abortively infected tonsillar CD4 T-cells (Western blot); format: cell-based, human; conditions: AZT 5 μM, AMD3100 250 nM, efavirenz 100 nM
Description: For assessing the processing and secretion of IL-1β in abortively infected CD4 T-cells, CD4 T-cells were isolated from HLACs as described above, and were spinoculated with or without NL4-3 with the indicated drugs as describes above in vi (Spinoculation) and in FIG. 7B. For intracellular protein analysis, cells were lysed 72 hours after spinoculation in RIPA buffer (150 mM NaCl, 1% Nonidet P-40 (vol/vol), 0.5% […] (vol/vol), 0.1% SDS (vol/vol), 50 mM Tris-HCl (pH 8), 1 mM DTT), and EDTA-free Protease Inhibitor (Roche Applied Science, Cat. #04 693 132 001). For analysis of secreted IL-1β, supernatants (200 μl/1 million cells) from the rest of the CD4 T-cells were collected five days after spinoculation and analyzed using Western blot. For Western blots we used the Bio-Rad Criterion 15% pre-cast Tris-HCl gels. Primary antibodies used were 1/1000 of the mouse monoclonal anti-human IL-1β (R&D Systems, Cat. # MAB201) and 1/10000 of the mouse monoclonal anti-β-Actin (Sigma, Cat. # A5316).

Row | Molecule | indirect killing of CFSE-labeled CD4 T-cells (CFSE-labeled CD4 T-cells; WEAU 16-8 (R5/X4)-infected effector cells) | AZT-induced killing of activated CFSE-labeled cells (CFSE-labeled CD4 T-cells; activated target cells in the presence of AZT) | loss of CFSE-labeled spleen CD4 T-cells [1] | maturation and release of bioactive 17 kDa IL-1β after NL4-3 infection (IL-1β) | depletion of activated CFSE-labeled CD4 T-cells (CFSE-labeled CD4 T-cells; AZT-resistant HIV-1 clones, AZT 0.5 μM) | indirect killing (loss) of resting CFSE-labeled CD4 T-cells (CFSE-labeled CD4 T-cells) | depletion of activated CFSE-labeled CD4 T-cells (CFSE-labeled CD4 T-cells; PHA and IL-2 activated target cells, NL4-3 effectors) | loss of resting CFSE-labeled spleen CD4 T-cells [1] | indirect killing of CFSE-labeled CD4 T-cells (CFSE-labeled CD4 T-cells; GIA-SKY (T20-dependent)-infected effector cells, 1 μg/ml T20) | indirect killing of CFSE-labeled CD4 T-cells (CFSE-labeled CD4 T-cells; SIM (T20-resistant)-infected effector cells)
1 | c1cc(CN2CCCNCCNCCCNCC2)ccc1CN1CCCNCCNCCCNCC1 [AMD3100] | prevented indirect killing | prevented the AZT-induced killing | prevented the loss of CD4 T-cells as efficiently as AMD3100 | completely prevented; also recorded: blocked | – | – | – | – | – | –
2 | Cc1cn([C@H]2C[C@H](N=[N+]=[N-])[C@@H](CO)O2)c(=O)[nH]c1=O [AZT] | – | – | robust in the absence of drugs or in the presence of AZT | similarly resulted in maturation and release of the bioactive 17 kDa IL-1β; also recorded: also resulted in release of bioactive 17-kDa IL-1β | did not deplete | robust | extensively depleted in cultures containing AZT | massively depleted | – | –
3 | O=C1Nc2ccc(Cl)cc2[C@@](C#CC2CC2)(C(F)(F)F)O1 [efavirenz] | – | – | prevented the loss of CD4 T-cells as efficiently as AMD3100 | completely prevented; also recorded: blocked | – | blocked indirect killing of resting CD4 T-cells as efficiently as AMD3100 | – | prevented this loss of CD4 T-cells | – | –
4 | enfuvirtide | – | – | – | – | – | greatly inhibited indirect killing | – | – | Indirect killing was observed | did not inhibit indirect killing

Reference: patent US9352010B2, “Treatment of HIV-1 infection and AIDS” (The J. David Gladstone Institutes, priority 2011, dated 2016)
